Like-named read-outs stand apart in the source and are kept apart here.
Legend:
[1] = tested on: HBV replication in HepAD38 cells; assay: Anti-HBV replication assay in HepAD38 cells (QPCR of extracellular HBV DNA); assay type: cell-based, HBV (genotype D, serotype ayw); conditions: 7 days incubation, extracellular HBV DNA by QPCR, read-out: Anti-HBV EC50
Summary of the method: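 EC50 values reflect 50% reduction of extracellular HBV DNA, measured by QPCR after 7-day treatment of tetracycline-deprived HepAD38 cells with compound […].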

HepG2 cells = assay: In vitro cytotoxicity assay (MTT cell viability) in HepG2 cells; assay type: cell-based, human
Summary of the method: (§1)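 Viability measured by MTT conversion, absorbance at 492 nm, as percent of vehicle-treated wells. Compounds spanned 30 μM to 1.0 nM in half-log steps over a 7-day exposure of parental HepG2 cells; CC50 derived by 4-parameter curve fit.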

[2] = as above; assay type: cell-based, human; conditions: human
Summary of the method: as §1

HBV = conditions: Phase 1b clinical trial, 600 mg bid dosing for 29 days; cited from earlier work
[3] = HepG2 cells, MTT cell viability, 7-day incubation, tested 30 μM to 1.0 nM, read-out: HepG2 CC50

With `Cc1c(C(=O)Nc2ccc(F)nc2)c(C)n(C)c1C(=O)C(=O)NC12C[C@@H]3C[C@@H](CC(O)(C3)C1)C2` [Example 16, N-(6-fluoropyridin-3-yl)-5-(2-(((1r,3s,5R,7S)-3-hydroxyadamantan-1-yl)amino)-2-oxoacetyl)-1,2,4-trimethyl-1H-pyrrole-3-carboxamide] the EC50 [1] was 50 to 499 nM and the CC50 (HepG2 cells; [3]) was 5 to 30 µM.
With `Cc1c(C(=O)Nc2ccc(F)nc2)c(C)n(C)c1C(=O)C(=O)N[C@]12C[C@@H]3C[C@@H](C[C@H]1C3)C2` [Example 19, N-(6-fluoropyridin-3-yl)-5-(2-(((2R,3as,5S,6as)-hexahydro-2,5-methanopentalen-3a(1H)-yl)amino)-2-oxoacetyl)-1,2,4-trimethyl-1H-pyrrole-3-carboxamide] the EC50 [1] was under 50 nM and the CC50 (HepG2 cells; [3]) was 5 to 30 µM.
`Cc1cc(NC(=O)c2c(C)c(C(=O)C(=O)N[C@@H]3[C@@H]4C[C@@H]5C[C@H]3C[C@@](O)(C5)C4)n(C)c2C)ccc1F` [Example 74, N-(4-fluoro-3-methylphenyl)-5-(2-(((1R,2s,3S,5s,7s)-5-hydroxyadamantan-2-yl)amino)-2-oxoacetyl)-1,2,4-trimethyl-1H-pyrrole-3-carboxamide] gave an EC50 [1] of under 50 nM and a CC50 (HepG2 cells; [3]) of over 30 µM.
`Cc1cc(NC(=O)c2c(C)c(C(=O)C3=Nc4ccccc4B(O)O3)n(C)c2C)ccc1F` [Example 256, N-(4-fluoro-3-methylphenyl)-5-(1-hydroxy-1H-enxo[c][1,5,2]oxazaborinine-3-carbonyl)-1,2,4-trimethyl-1H-pyrrole-3-carboxamide] showed an EC50 [1] of 50 to 499 nM and a CC50 (HepG2 cells; [3]) of 5 to 30 µM.
Work on `Cc1cc(NC(=O)c2c(Cl)c(C(=O)C(=O)NC3(CO)CC3)n3c2CCCC3)ccc1F` [Example 491, 2-chloro-N-(4-fluoro-3-methylphenyl)-3-(2-((1-(hydroxymethyl)cyclopropyrl)amino)-2-oxoacetyl)-5,6,7,8-tetrahydroindolizine-1-carboxamide] yielded an EC50 [1] of under 50 nM and a CC50 (HepG2 cells) of over 30 µM.
Work on `Cc1cc(NC(=O)c2c(C)c(C(=O)C(=O)N[C@H]3CC[C@](C)(O)CC3)n3c2CCCC3)ccc1F` [Example 740, N-(4-fluoro-3-methylphenyl)-3-(2-(((1r,4r)-4-hydroxy-4-methylcyclohexyl)amino)-2-oxoacetyl)-2-methyl-5,6,7,8-tetrahydroindolizine-1-carboxamide] yielded an EC50 ([1]; Hepatitis B virus, 168 h) of under 50 nM and a CC50 at 7 days [2] of over 30 µM.
For `Cc1c(C(=O)Nc2ccc(F)c(F)c2)c2n(c1C(=O)C(=O)NCCN)CCCC2` [Example 741, 3-(2-((2-aminoethyl)amino)-2-oxoacetyl)-N-(3,4-difluorophenyl)-2-methyl-5,6,7,8-tetrahydroindolizine-1-carboxamide], the EC50 ([1]; Hepatitis B virus, 168 h) was 50 to 499 nM and the CC50 at 7 days [2] was over 30 µM.
In the case of `Cc1c(C(=O)Nc2ccc(F)c(F)c2)c2n(c1C(=O)C(=O)NC1(C)CCNCC1)CCCC2` [Example 742], the EC50 ([1]; Hepatitis B virus, 168 h) is reported as 50 to 499 nM and the CC50 at 7 days [2] is reported as over 30 µM.
`Cc1c(C(=O)Nc2ccc(F)c(F)c2)c2n(c1C(=O)C(=O)NC1(c3nn[nH]n3)CCCC1)CCCC2` [Example 743, 3-(22-((1-(2H-tetrazol-5-yl)cyclopentyl)amino)-2-oxoacetyl)-N-(3,4-difluorophenyl)-2-methyl-5,6,7,8-tetrahydroindolizine-1-carboxamide] gave an EC50 ([1]; Hepatitis B virus, 168 h) of 50 to 499 nM and a CC50 at 7 days [2] of over 30 µM.
In the case of `Cc1c(C(=O)NC2CCC(F)(F)C2)c2n(c1C(=O)C(=O)NC1(CO)CCC1)CCCC2` (centres unmarked) [Example 744, N-(3,3-difluorocyclopentyl)-3-(2-((1-(hydroxymethyl)cyclobutyl)amino)-2-oxoacetyl)-2-methyl-5,6,7,8-tetrahdyroindolizine-1-carboxamide], the EC50 ([1]; Hepatitis B virus, 168 h) is reported as 50 to 499 nM and the CC50 at 7 days [2] is reported as over 30 µM.
For `Cc1c(C(=O)NC2(C)CCCC2)c2n(c1C(=O)C(=O)NC1(CO)CCC1)CCCC2` [Example 745, 3-(2-((1-(hydroxymethyl)cyclobutyl)amino)-2-oxoacetyl)-2-methyl-N-(1-methylcyclopentyl)-5,6,7,8-tetrahdyroindolizine-1-carboxamide], the EC50 ([1]; Hepatitis B virus, 168 h) was 50 to 499 nM and the CC50 at 7 days [2] was over 30 µM.
`Cc1c(C(=O)NC2CCCC2)c2n(c1C(=O)C(=O)NC1(CO)CCC1)CCCC2` [Example 746, N-cyclopentyl-3-(2-((1-(hydroxymethyl)cyclobutyl)amino)-2-oxoacetyl)-2-methyl-5,6,7,8-tetrahydroindolizine-1-carboxamide] gave an EC50 ([1]; Hepatitis B virus, 168 h) of 50 to 499 nM and a CC50 at 7 days [2] of over 30 µM.
Work on `Cc1c(C(=O)Nc2ccn(C)n2)c2n(c1C(=O)C(=O)NC1(CO)CCC1)CCCC2` [Example 748, 3-(2-((1-(hydroxymethyl)cyclobutyl)amino)-2-oxoacetyl)-2-methyl-N-(1-methyl-1H-pyrazol-3-yl)-5,6,7,8-tetrahydroindolizine-1-carboxamide] yielded an EC50 ([1]; Hepatitis B virus, 168 h) of 50 to 499 nM and a CC50 at 7 days [2] of over 30 µM.
Work on `Cc1c(C(=O)Nc2ncc(C(F)(F)F)s2)c2n(c1C(=O)C(=O)NC1(CO)CCC1)CCCC2` [Example 749, 3-(2-((1-(hydroxymethyl)cyclobutyl)amino)-2-oxoacetyl)-2-methyl-N-(5-(trifluoromethyl)thiazol-2-yl)-5,6,7,8-tetrahydroindolizine-1-carboxamide] yielded an EC50 ([1]; Hepatitis B virus, 168 h) of 50 to 499 nM and a CC50 at 7 days [2] of over 30 µM.
Work on `Cc1cnc(NC(=O)c2c(C)c(C(=O)C(=O)NC3(CO)CCC3)n3c2CCCC3)s1` [Example 750] yielded an EC50 ([1]; Hepatitis B virus, 168 h) of 50 to 499 nM and a CC50 at 7 days [2] of over 30 µM.
For `Cc1c(C(=O)Nc2nccs2)c2n(c1C(=O)C(=O)NC1(CO)CCC1)CCCC2` [Example 751], the EC50 ([1]; Hepatitis B virus, 168 h) was 50 to 499 nM and the CC50 at 7 days [2] was over 30 µM.
`Cc1c(C(=O)NC2CCC(F)(F)C2)c2n(c1C(=O)C(=O)NC(C)(C)CO)CCCC2` (centres unmarked) [Example 752, N-(3,3-difluorocyclopentyl)-3-(2-((1-hydroxy-2-methylpropan-2-yl)amino)-2-oxoacetyl)-2-methyl-5,6,7,8-tetrahydroindolizine-1-carboxamide] showed an EC50 ([1]; Hepatitis B virus, 168 h) of 50 to 499 nM and a CC50 at 7 days [2] of over 30 µM.
With `Cc1c(C(=O)NC2(C)CCCC2)c2n(c1C(=O)C(=O)NC(C)(C)CO)CCCC2` [Example 753, 3-(2-((1-hydroxy-2-methylpropan-2-yl)amino)-2-oxoacetyl)-2-methyl-N-(1-methylcyclopentyl)-5,6,7,8-tetrahydroindolizine-1-carboamide] the EC50 ([1]; Hepatitis B virus, 168 h) was 50 to 499 nM and the CC50 at 7 days [2] was over 30 µM.
`Cc1c(C(=O)NC2CCCC2)c2n(c1C(=O)C(=O)NC(C)(C)CO)CCCC2` [Example 754] showed an EC50 ([1]; Hepatitis B virus, 168 h) of 50 to 499 nM and a CC50 at 7 days [2] of over 30 µM.
For `Cc1c(C(=O)Nc2ccn(C)n2)c2n(c1C(=O)C(=O)NC(C)(C)CO)CCCC2` [Example 756, 3-(2-((1-hydroxy-2-methylpropan-2-yl)amino)-2-oxoacetyl)-2-methyl-N-(1-methyl-1H-pyrazol-3-yl)-5,6,7,8-tetrahydroindolizine-1-carboxamide], the EC50 ([1]; Hepatitis B virus, 168 h) was 50 to 499 nM and the CC50 at 7 days [2] was over 30 µM.
Work on `Cc1c(C(=O)Nc2ncc(C(F)(F)F)s2)c2n(c1C(=O)C(=O)NC(C)(C)CO)CCCC2` [Example 757, 3-(2-((1-hydroxy-2-methylpropan-2-yl)amino)-2-oxoacetyl)-2-methyl-N-(5-(trifluoromethyl)thiazol-2-yl)-5,6,7,8-tetrahydroindolizine-1-carboxamide] yielded an EC50 ([1]; Hepatitis B virus, 168 h) of 50 to 499 nM and a CC50 at 7 days [2] of over 30 µM.
In the case of `Cc1cnc(NC(=O)c2c(C)c(C(=O)C(=O)NC(C)(C)CO)n3c2CCCC3)s1` [Example 758, 3-(2-((1-hydroxy-2-methylpropan-2-yl)amino)-2-oxoacetyl)-2-methyl-N-(5-methylthiazol-2-yl)-5,6,7,8-tetrahydroindazoline-1-carboxamide], the EC50 ([1]; Hepatitis B virus, 168 h) is reported as 50 to 499 nM and the CC50 at 7 days [2] is reported as over 30 µM.
Work on `Cc1c(C(=O)Nc2nccs2)c2n(c1C(=O)C(=O)NC(C)(C)CO)CCCC2` [Example 759, 3-(2-((1-hydroxy-2-methylpropan-2-yl)amino)-2-oxoacetyl)-2-methyl-N-(thiazol-2-yl)-5,6,7,8-tetrahydroindolizine-1-carboxamide] yielded an EC50 ([1]; Hepatitis B virus, 168 h) of 50 to 499 nM and a CC50 at 7 days [2] of over 30 µM.
In the case of `O=C(Nc1cc(F)c(F)c(F)c1)c1ccc(F)c(S(=O)(=O)N2CCC(O)CC2)c1` [NVR 3-778], the “reduction in HBV DNA” value (HBV) is given as −1.7 log 10.
For “(S)-2-chloro-N-(4-fluoro-3- methylphenyl)-5-(2-((1- hydroxybutan-2-yl)amino)-2- oxoacetyl)-14-dimethyl-1H- pyrrole-3-carboxamide [Example 389]”, the EC50 [1] was over 1000 nM and the CC50 (HepG2 cells; [3]) was 5 to 30 µM.
For “(S)-4-chloro-N-(4-fluoro-3- methylphenyl)-5-(2-((1- hydroxybutan-2-yl)amino0-2- oxoacetyl)-1,2-dimethyl-1H- pyrrole-3-carboxamide [Example 368]”, the EC50 [1] was 50 to 499 nM and the CC50 (HepG2 cells; [3]) was over 30 µM.
Molecule “N-(4-fluoro-3-methylphenyl)-1,2,4-trimethyl-5-(2-(((1s,4s)-4-morpholinocyclohexyl)amino)-2-oxoacetyl)-1H-pyrrole-3-carboxamide [Example 265]” has an EC50 [1] of 50 to 499 nM and a CC50 (HepG2 cells; [3]) of over 30 µM.
